Assay results published in patent US20250275949A1, “USE OF DITERPENE COMPOUND DERIVATIVE OR SALT THEREOF IN PREPARATION OF MEDICINE FOR PREVENTING AND TREATING ATOPIC DERMATITIS” (SUZHOU PHARMAVAN CO., LTD, priority 2022, published 2025).

Key:
Type in all cases: in vivo, BALB/c mice
MC903-induced AD model [1] = assay: MC903-induced AD mouse model, Example 3 (ear swelling, skin thickness, mast cells, histopathology, serum IgE ELISA)
Source text: Experimental animals involved in the following embodiments were SPF-grade BALB/c mice (≥7 weeks old, female). The scoring criteria for skin lesions involved in the following embodiments are shown in Table 1 and the histopathological scoring criteria are shown in Table 2. [table] This example explores the preventive and therapeutic effect of a small-molecule diterpene derivative on the MC903-induced AD model, including the following: • The day of grouping was defined as day 0. Mice were randomly divided into 5 groups: blank control (NC) group, model (MC903) group, blank cream (vehicle) group, 0.1%-Compound 1 cream group, and 0.5%-Compound 1 cream group; each group had 10 animals. Each group except NC group was treated for modeling AD. From day 0 to day 10:0.1 nmol/μL-MC903 solution was applied to the auricle of right ear at 20 μL once a day. Each group except NC group and MC903 group was administrated. The administration started from day 3 to day 10, and the mice was administrated once a day at the auricle of right ear by 50 μL. The condition of the animals was observed during the experimental period. The mice were euthanized, and their ear tissues were retained for the degree of ear swelling measurement, skin thickness measurement, mast cell counting and immunohistochemical analysis, and their blood tissues were retained for ELISA. [table]

OXA-induced AD model [2] = assay: OXA-induced AD mouse model, Example 2 (Compound 1 cream; lesion score, ear thickness, immunohistochemistry, Western Blot); settings: for right ear thickness on day 24 / skin lesion score on day 24: 50 μL per ear once a day, day 7 to day 23; for right ear thickness on day 24 / skin lesion score on day 24 / ICAM-1 positive rate, immunohistochemistry / Ki67 positive rate, immunohistochemistry / VCAM-1 positive rate, immunohistochemistry: vs vehicle group
Source text: Experimental animals involved in the following embodiments were SPF-grade BALB/c mice (≥7 weeks old, female). The scoring criteria for skin lesions involved in the following embodiments are shown in Table 1 and the histopathological scoring criteria are shown in Table 2. [table] The day of grouping was defined as day 0. Mice were randomly divided into 5 groups: blank control (NC) group, model (OXA) group, blank cream (vehicle) group, 0.1%-Compound 1 cream group, and 0.5%-Compound 1 cream group; the NC group had 5 animals, the other groups each had 10 animals. Each group except NC group was treated for modeling AD. Day 0:0.8%-OXA solution was applied to the auricle of both ears at 20 μL per ear. Day 7, 10, 12, 14, 17, 19, 21, and 23:0.4%-OXA solution was applied to the auricle of both ears at 20 μL per ear. Each group except NC group and OXA group was administrated. The administration started from day 7 to day 23, and the mice was administrated once a day at the auricle of both ears by 50 μL per ear (100 μL per mouse). The condition of the animals was observed during the experimental period, and the auricle was scored for skin lesions (see Table 1 for skin lesion scoring criteria), and the thickness of the ears was measured. The mice were euthanized, and their ear tissues were retained for immunohistochemistry and Western Blot analysis. [table]

OXA-induced AD model [3] = assay: OXA-induced AD mouse model, Example 1 (eight compounds in castor oil); settings: 0.1% in castor oil, day 7 to day 23; for OXA-induced AD-like lesions (conclusion of Example 1): auricle
Source text: Experimental animals involved in the following embodiments were SPF-grade BALB/c mice (≥7 weeks old, female). The scoring criteria for skin lesions involved in the following embodiments are shown in Table 1 and the histopathological scoring criteria are shown in Table 2. [table] The day of grouping was defined as day 0. Mice were randomly divided into 11 groups: blank control (NC) group, model (OXA) group, blank castor oil (vehicle) group, Compound 1 administration group, Compound 2 administration group, Compound 3 administration group, Compound 4 administration group, Compound 5 administration group, Compound 6 administration group, Compound 7 administration group, and Compound 8 administration 10 group, with 5 animals in each group. Each group except NC group was treated for modeling AD. Day 0:0.8%-OXA solution was applied to the auricle of both ears at 20 μL per ear. Day 7, 10, 12, 14, 17, 19, 21, and 23:0.4%-OXA solution was applied to the auricle of both ears at 20 μL per ear. Each group except NC group and OXA group was administrated. The administration started from day 7 to day 23, and the mice was administrated once a day at the auricle of both ears by 50 μL per ear (100 μL per mouse). The condition of the animals was observed during the experimental period, and the auricle was scored for skin lesions (see Table 1 for skin lesion scoring criteria), and the thickness of the ears was measured. [table]

MC903-induced AD model [4] = assay: MC903-induced AD mouse model, itching symptoms (scratching times), Example 4; settings: cream 0.1% and 0.5%, right auricle, day 3 to day 10; video on the day before the experiment ended
Source text: Experimental animals involved in the following embodiments were SPF-grade BALB/c mice (≥7 weeks old, female). This example explores the preventive and therapeutic effect of a small-molecule diterpene derivative to itching symptoms on the MC903-induced AD model, including the following: • The day of grouping was defined as day 0. Mice were randomly divided into 5 groups: blank control (NC) group, model (MC903) group, blank cream (vehicle) group, 0.1%-Compound 1 cream group, and 0.5%-Compound 1 cream group; each group had 10 animals. Each group except NC group was treated for modeling AD. From day 0 to day 10:0.1 nmol/μL-MC903solution was applied to the auricle of right ear at 20 μL once a day. Each group except NC group and MC903 group was administrated. The administration started from day 3 to day 10, and the mice was administrated once a day at the auricle of right ear by 50 μL. The administration method for modeling and the design of subject dosage are same as Example 3. On the day before the experiment ended, the mice were videoed, and the mice of AD model were evaluated through the video about their scratching times in 15 min.

[5] = cream 0.1% and 0.5%, right auricle, day 3 to day 10
[6] = cream, 0.1% and 0.5% groups together
[7] = cream, 0.1% and 0.5%, ear tissue
[8] = 50 μL per ear on auricle once a day, compared with vehicle group

## C=C1C(=O)[C@@]23[C@H](O)C[C@@H]4C(C)(C)c5nc(N(C)C)sc5C[C@@]4(C)[C@@H]2CC[C@@H]1[C@H]3O [Compound 1]
MC903-induced AD model [1]; cream 0.1% and 0.5%, 50 μL on right auricle once a day, day 3 to day 10
  degree of ear swelling: effectively ameliorate the ear swelling
MC903-induced AD model [1]; [5]
  dermal thickness (ear histological scanning): effectively ameliorate the thickening of epidermis and dermis
  epidermal thickness (ear histological scanning): effectively ameliorate the thickening of epidermis and dermis
  histopathology scores (total, parakeratosis, epidermal defect, dermal papilla thickening, capillary proliferation, inflammatory infiltration), HE staining: effectively ameliorates the extent of MC903-induced AD-like lesions
  mast cell counting (toluidine blue staining of ear tissue sections): significantly reduces the number of mast cells
  serum IgE concentration (ELISA): inhibits the serum IgE concentration
MC903-induced AD model [1]; cream, 0.1% and 0.5%
  MC903-induced AD-like lesions (conclusion of Example 3): significantly ameliorate the MC903-induced AD-like lesions
OXA-induced AD model [2]; 0.1% cream
  right ear thickness on day 24: statistically different from the vehicle group
  skin lesion score on day 24: statistically different from the vehicle group
OXA-induced AD model [2]; 0.1% cream, ear tissue
  ICAM-1 positive rate, immunohistochemistry: reduced
  Ki67 positive rate, immunohistochemistry: reduced (statistically different)
  VCAM-1 positive rate, immunohistochemistry: reduced
OXA-induced AD model [2]; 0.5% cream
  right ear thickness on day 24: statistically different from the vehicle group
  skin lesion score on day 24: statistically different from the vehicle group
OXA-induced AD model [2]; 0.5% cream, ear tissue
  ICAM-1 positive rate, immunohistochemistry: reduced
  Ki67 positive rate, immunohistochemistry: reduced (statistically different)
  VCAM-1 positive rate, immunohistochemistry: reduced
OXA-induced AD model [2]; cream, 0.1% and 0.5%
  OXA-induced AD-like lesions (conclusion of Example 2): significantly ameliorate the OXA-induced AD-like lesions
OXA-induced AD model [2]; [6]
  ear thickness (conclusion): effectively ameliorate the ear thickness
  epidermal overproliferation (Ki67) and aberrant expression of adhesion factor (ICAM-1, VCAM-1), conclusion: effectively inhibit the epidermal overproliferation and aberrant expression of adhesion factor
  skin lesion score (conclusion): effectively reduce the skin lesion score
OXA-induced AD model [2]; [7]
  ICAM-1 protein expression (gray value), Western Blot: consistent with the immunohistochemical results
  VCAM-1 protein expression (gray value), Western Blot: consistent with the immunohistochemical results
OXA-induced AD model [3]; [8]
  skin lesion score on day 24: effectively reduce the skin lesion score
OXA-induced AD model [3]
  OXA-induced AD-like lesions (conclusion of Example 1): significantly ameliorate the OXA-induced AD-like lesions
MC903-induced AD model [4]
  scratching times in 15 min (extent of itching): effectively ameliorates the extent of itching

## C=C1C(=O)[C@@]23[C@H](O)C[C@@H]4C(C)(C)c5nc(N)sc5C[C@@]4(C)[C@@H]2CC[C@@H]1[C@H]3O [Compound 2]
OXA-induced AD model [3]; [8]
  skin lesion score on day 24: do not exert a significant anti-atopic dermatitis effect

## C=C1C(=O)[C@@]23[C@H](O)C[C@@H]4C(C)(C)c5nc(NC)sc5C[C@@]4(C)[C@@H]2CC[C@@H]1[C@H]3O [Compound 3]
OXA-induced AD model [3]; [8]
  skin lesion score on day 24: do not exert a significant anti-atopic dermatitis effect

## C=C1C(=O)[C@@]23[C@H](O)C[C@@H]4C(C)(C)c5nc(NCC)sc5C[C@@]4(C)[C@@H]2CC[C@@H]1[C@H]3O [Compound 4]
OXA-induced AD model [3]; [8]
  skin lesion score on day 24: do not exert a significant anti-atopic dermatitis effect

## C=C1C(=O)[C@@]23[C@H](O)C[C@@H]4C(C)(C)c5nc(N(CC)CC)sc5C[C@@]4(C)[C@@H]2CC[C@@H]1[C@H]3O [Compound 5]
OXA-induced AD model [3]; [8]
  skin lesion score on day 24: effectively reduce the skin lesion score
OXA-induced AD model [3]
  OXA-induced AD-like lesions (conclusion of Example 1): significantly ameliorate the OXA-induced AD-like lesions

## C=C1C(=O)[C@@]23[C@H](O)C[C@@H]4C(C)(C)c5nc(N(CCC)CCC)sc5C[C@@]4(C)[C@@H]2CC[C@@H]1[C@H]3O [Compound 6]
OXA-induced AD model [3]; [8]
  skin lesion score on day 24: effectively reduce the skin lesion score
OXA-induced AD model [3]
  OXA-induced AD-like lesions (conclusion of Example 1): significantly ameliorate the OXA-induced AD-like lesions

## C=C1C(=O)[C@@]23[C@H](O)C[C@@H]4C(C)(C)c5nc(N(C(C)C)C(C)C)sc5C[C@@]4(C)[C@@H]2CC[C@@H]1[C@H]3O [Compound 7]
OXA-induced AD model [3]; [8]
  skin lesion score on day 24: effectively reduce the skin lesion score
OXA-induced AD model [3]
  OXA-induced AD-like lesions (conclusion of Example 1): significantly ameliorate the OXA-induced AD-like lesions

## C=C1C(=O)[C@@]23[C@H](O)C[C@@H]4C(C)(C)c5nc(Nc6ccncc6)sc5C[C@@]4(C)[C@@H]2CC[C@@H]1[C@H]3O [Compound 8]
OXA-induced AD model [3]; [8]
  right ear thickness on day 24: Vehicle group>Compound 8 group
  skin lesion score on day 24: do not exert a significant anti-atopic dermatitis effect
